≈ marks a conversion by molar mass, not a printed value. Calls of active or inactive are those of the source. No cut-off for these calls is given here. Where a SMILES comes first, the peptide text is derived from it.
Legend:
Staphylococcus aureus [1] = experiment: Antibacterial activity against Staphylococcus aureus ATCC 29213 assessed as inhibition of bacterial growth by CLSI protocol based microdilution assay; format: functional
Enterococcus faecalis = experiment: Antibacterial activity against Enterococcus faecalis ATCC 29212 assessed as inhibition of bacterial growth by CLSI protocol based microdilution assay; format: functional
Escherichia coli [2] = experiment: Antibacterial activity against Escherichia coli ATCC 25922 assessed as inhibition of bacterial growth by CLSI protocol based microdilution assay; format: functional
Pseudomonas aeruginosa [3] = experiment: Antibacterial activity against Pseudomonas aeruginosa ATCC 27853 assessed as inhibition of bacterial growth by CLSI protocol based microdilution assay; format: functional
Staphylococcus aureus [4] = experiment: Antibacterial activity against methicillin-resistant Staphylococcus aureus assessed as inhibition of bacterial growth by CLSI protocol based microdilution assay; format: functional
Pseudomonas aeruginosa [5] = experiment: Antibacterial activity against multidrug-resistant Pseudomonas aeruginosa assessed as inhibition of bacterial growth by CLSI protocol based microdilution assay; format: functional
Escherichia coli [6] = experiment: Antibacterial activity against multidrug- resistant Escherichia coli assessed as inhibition of bacterial growth by CLSI protocol based microdilution assay; format: functional
Cell membrane [7] = experiment: Induction of cell membrane permeabilization in Escherichia coli ATCC 25922 assessed as cell morphology distortion by measuring modifications on bacillary structure at 0.12 uM by Atomic force microscopy analysis; format: subcellular
Leishmania amazonensis [8] = experiment: Antileishmanial activity against Leishmania amazonensis (MHOM/BR/73/M2269) promastigotes assessed as inhibition of parasite growth measured after 24 hrs by MTT assay; format: functional, organism-based; settings: MHOM/BR/73/M2269, 24 h
Cell membrane [9] = experiment: Disruption of membrane integrity in Leishmania amazonensis promastigotes assessed as cell morphology deformation at 61.98 uM by Atomic force microscopy analysis; format: subcellular
Cell membrane [10] = experiment: Disruption of membrane integrity in Leishmania amazonensis promastigotes assessed as cell morphology deformation by measuring wrinkled patterns at 61.98 uM by Atomic force microscopy analysis; format: subcellular
Leishmania amazonensis [11] = experiment: Antileishmanial activity in Leishmania amazonensis amastigotes infected in Balb/c mouse peritoneal macrophages assessed as reduction in infection index measured after 24 hrs by Giemsa staining based assay; format: functional, organism-based; settings: Peritoneal macrophage
Lipid bilayer [12] = experiment: Induction of membrane destabilization in mammalian cell membrane mimic POPC:Chol (70:30) large unilamellar vesicle assessed as carboxyfluorescein leakage at MIC for Escherichia coli measured for 60 mins by fluorescence spectroscopy analysis
Lipid bilayer [13] = experiment: Induction of membrane destabilization in bacterial cell membrane mimic POPC:POPG (80:20) large unilamellar vesicle assessed as carboxyfluorescein leakage at MIC for Escherichia coli measured for 60 mins by fluorescence spectroscopy analysis
[14] = Cytotoxicity against mouse macrophage J774 cells assessed as cell growth inhibition measured after 24 hrs by Prestoblue dye based fluorescence analysis
[15] = Cytotoxicity against human HaCat cells assessed as cell growth inhibition measured after 48 hrs by MTT assay; format: cell-based
Lipid bilayer [16] = experiment: Binding affinity with Biomimetic membrane dodecylphosphocholine micelles by circular dichroism analysis
Lipid bilayer [17] = experiment: Binding affinity with Biomimetic membrane dodecylphosphocholine micelles by NMR analysis
Escherichia coli [18] = experiment: Antibacterial activity against Escherichia coli ATCC 2101123 assessed as inhibition of bacterial growth incubated for 18 hrs by CLSI protocol based microdilution assay; format: functional
Escherichia coli [19] = experiment: Antibacterial activity against Escherichia coli ATCC 1812446 assessed as inhibition of bacterial growth incubated for 18 hrs by CLSI protocol based microdilution assay; format: functional
Cell membrane [20] = experiment: Induction of cell membrane permeabilization in Escherichia coli ATCC 25922 assessed as cell morphology distortion by measuring circular depressions along the bacterial surface at 0.47 uM by Atomic force microscopy analysis; format: subcellular
Cell membrane [21] = experiment: Induction of cell membrane permeabilization in Escherichia coli ATCC 25922 assessed as cell morphology distortion by measuring alterations in cell shape at 0.47 uM by Atomic force microscopy analysis; format: subcellular
Leishmania amazonensis [22] = experiment: Antileishmanial activity in Leishmania amazonensis amastigotes infected in Balb/c mouse peritoneal macrophages assessed as average parasitic charge per macrophage at 0.70 uM measured after 24 hrs by Giemsa staining based assay; format: functional; settings: dose 0.7 µM
Leishmania amazonensis [23] = experiment: Antileishmanial activity in Leishmania amazonensis amastigotes infected in Balb/c mouse peritoneal macrophages assessed as average parasitic charge per macrophage at 1 uM measured after 24 hrs by Giemsa staining based assay; format: functional
Cell membrane [24] = experiment: Induction of cell membrane permeabilization in Escherichia coli ATCC 25922 assessed as cell morphology distortion by measuring modifications on bacillary structure at 0.23 uM by Atomic force microscopy analysis; format: subcellular
Cell membrane [25] = experiment: Disruption of membrane integrity in Leishmania amazonensis promastigotes at EC50 to 2 x EC50 measured after 24 hrs by SYTOX green staining based fluorescence assay; format: subcellular
Cell membrane [26] = experiment: Disruption of membrane integrity in Leishmania amazonensis promastigotes assessed as cell morphology deformation at 59.81 uM by Atomic force microscopy analysis; format: subcellular
Cell membrane [27] = experiment: Disruption of membrane integrity in Leishmania amazonensis promastigotes assessed as cell morphology deformation by measuring wrinkled patterns at 59.81 uM by Atomic force microscopy analysis; format: subcellular
Escherichia coli [28] = experiment: Antibacterial activity against Escherichia coli ATCC 25922 assessed as inhibition of bacterial growth incubated for 18 hrs by CLSI protocol based microdilution assay; format: functional
Pseudomonas aeruginosa [29] = experiment: Antibacterial activity against Pseudomonas aeruginosa ATCC 27853 assessed as inhibition of bacterial growth incubated for 18 hrs by CLSI protocol based microdilution assay; format: functional

Row | SMILES | MIC (Staphylococcus aureus [1]) | MIC (Enterococcus faecalis) | MIC (Escherichia coli [2]) | MIC (Pseudomonas aeruginosa [3]) | MIC (Staphylococcus aureus [4]) | MIC (Pseudomonas aeruginosa [5]) | MIC (Escherichia coli [6]) | EC50 (Leishmania amazonensis [8]) | Activity (Leishmania amazonensis [11]) | Activity (Lipid bilayer [12]) | Activity (Lipid bilayer [13]) | CC50 at 24 h [14] | CC50 at 48 h [15] | Activity (Lipid bilayer [16]) | Activity (Lipid bilayer [17]) | MIC (Escherichia coli [18]) | MIC (Escherichia coli [19]) | further results
1 | CC[C@H](C)[C@H](NC(=O)[C@@H](NC(=O)[C@H](CCCNC(=N)N)NC(=O)[C@@H]1CCCN1C(=O)[C@H](CCCCN)NC(=O)[C@H](CCCNC(=N)N)NC(=O)[C@H](Cc1ccccc1)NC(=O)[C@H](Cc1ccccc1)NC(=O)[C@H](Cc1ccccc1)NC(=O)[C@H](CCCCN)NC(=O)[C@@H](NC(=O)[C@H](CCCNC(=N)N)NC(=O)[C@H](CCCCN)NC(=O)[C@H](CCCCN)NC(=O)[C@@H](NC(=O)[C@H](CO)NC(=O)[C@H](CC(N)=O)NC(=O)[C@H](CCCCN)NC(=O)[C@H](CC(C)C)NC(=O)[C@H](CCCCN)NC(=O)[C@H](CCCCN)NC(=O)[C@H](Cc1ccccc1)NC(=O)[C@H](Cc1ccccc1)NC(=O)[C@H](CCCCN)NC(=O)[C@H](CCCCN)NC(=O)[C@H](Cc1ccccc1)NC(=O)[C@H](CCCNC(=N)N)NC(=O)[C@@H](N)CCCCN)C(C)C)C(C)C)C(C)C)C(=O)NCC(=O)N[C@H](C(=O)N[C@H](C(=O)N[C@@H](Cc1ccccc1)C(=O)N1CCC[C@H]1C(N)=O)[C@@H](C)O)C(C)C (H-KRFKKFFKKLKNSVKKRVKFFFRKPRVIGVTFP-NH2) | 3.87 µM (≈ 16 µg/mL) | 7.75 µM (≈ 32 µg/mL) | 0.48 µM (≈ 1.98 µg/mL) | 0.97 µM (≈ 4.01 µg/mL) | 1.94 µM (≈ 8.01 µg/mL) | 0.94 µM (≈ 3.88 µg/mL) | 0.48 µM (≈ 1.98 µg/mL) | 8.86 µM | Dose-Dependent Effect | 30% | 35% | 3.51 µM | 34.1 µM | Active | Active | – | – | Activity (Cell membrane [7]): Active; Activity (Cell membrane [9]): Active; Activity (Cell membrane [10]): Active
2 | CC[C@H](C)[C@H](NC(=O)[C@@H](NC(=O)[C@H](CCCNC(=N)N)NC(=O)[C@@H]1CCCN1C(=O)[C@H](CCCCN)NC(=O)[C@H](CCCNC(=N)N)NC(=O)[C@H](Cc1ccccc1)NC(=O)[C@H](Cc1ccccc1)NC(=O)[C@H](CCCCN)NC(=O)[C@H](CCCCN)NC(=O)[C@@H](NC(=O)[C@H](CCCNC(=N)N)NC(=O)[C@H](CCCCN)NC(=O)[C@H](CCCCN)NC(=O)[C@@H](NC(=O)[C@H](CO)NC(=O)[C@H](CC(N)=O)NC(=O)[C@H](CCCCN)NC(=O)[C@H](CC(C)C)NC(=O)[C@H](CCCCN)NC(=O)[C@H](CCCCN)NC(=O)[C@H](Cc1ccccc1)NC(=O)[C@H](Cc1ccccc1)NC(=O)[C@H](CCCCN)NC(=O)[C@H](CCCCN)NC(=O)[C@H](Cc1ccccc1)NC(=O)[C@H](CCCNC(=N)N)NC(=O)[C@@H](N)CCCCN)C(C)C)C(C)C)C(C)C)C(=O)NCC(=O)N[C@H](C(=O)N[C@H](C(=O)N[C@@H](Cc1ccccc1)C(=O)N1CCC[C@H]1C(=O)N[C@@H](Cc1ccccc1)C(N)=O)[C@@H](C)O)C(C)C (H-KRFKKFFKKLKNSVKKRVKKFFRKPRVIGVTFPF-NH2) | 7.51 µM (≈ 32 µg/mL) | 7.51 µM (≈ 32 µg/mL) | 0.48 µM (≈ 2.04 µg/mL) | 0.94 µM (≈ 4 µg/mL) | 7.51 µM (≈ 32 µg/mL) | 0.94 µM (≈ 4 µg/mL) | 0.94 µM (≈ 4 µg/mL) | 4.9 µM | Dose-Dependent Effect | 35% | 50% | 1.6 µM | 21.7 µM | Active | Active | 8 µM (≈ 34.1 µg/mL) | 8 µM (≈ 34.1 µg/mL) | Activity (Cell membrane [20]): Active; Activity (Cell membrane [21]): inactive; Activity (Leishmania amazonensis [22]): 1.96
3 | C[C@@H]1[C@H](O)[C@@H](C)/C=C/C=C/C=C/C=C/C=C/C=C/C=C/[C@H](O[C@@H]2O[C@H](C)[C@@H](O)[C@H](N)[C@@H]2O)C[C@@H]2O[C@](O)(C[C@@H](O)C[C@@H](O)[C@H](O)CC[C@@H](O)C[C@@H](O)CC(=O)O[C@H]1C)C[C@H](O)[C@H]2C(=O)O [AMPHOTERICIN B] | – | – | – | – | – | – | – | 0.024 µM | – | – | – | – | – | – | – | – | – | Ratio (Leishmania amazonensis [23]): 5.07
4 | CC[C@H](C)[C@H](NC(=O)[C@@H](NC(=O)[C@H](CCCNC(=N)N)NC(=O)[C@@H]1CCCN1C(=O)[C@H](CCCCN)NC(=O)[C@H](CCCNC(=N)N)NC(=O)[C@H](Cc1ccccc1)NC(=O)[C@H](Cc1ccccc1)NC(=O)[C@H](Cc1ccccc1)NC(=O)[C@H](CCCCN)NC(=O)[C@@H](NC(=O)[C@H](CCCNC(=N)N)NC(=O)[C@H](CCCCN)NC(=O)[C@H](CCCCN)NC(=O)[C@@H](NC(=O)[C@H](CO)NC(=O)[C@H](CC(N)=O)NC(=O)[C@H](CCCCN)NC(=O)[C@H](CC(C)C)NC(=O)[C@H](CCCCN)NC(=O)[C@H](CCCCN)NC(=O)[C@H](Cc1ccccc1)NC(=O)[C@H](Cc1ccccc1)NC(=O)[C@H](CCCCN)NC(=O)[C@H](CCCCN)NC(=O)[C@H](Cc1ccccc1)NC(=O)[C@H](CCCNC(=N)N)NC(=O)[C@@H](N)CCCCN)C(C)C)C(C)C)C(C)C)C(=O)NCC(=O)N[C@H](C(=O)N[C@H](C(=O)N[C@@H](Cc1ccccc1)C(=O)N1CCC[C@H]1C(=O)N[C@@H](Cc1ccccc1)C(N)=O)[C@@H](C)O)C(C)C (H-KRFKKFFKKLKNSVKKRVKFFFRKPRVIGVTFPF-NH2) | 3.74 µM (≈ 16 µg/mL) | 7.48 µM (≈ 32 µg/mL) | 0.93 µM (≈ 3.98 µg/mL) | 1.87 µM (≈ 8 µg/mL) | 1.87 µM (≈ 8 µg/mL) | 4 µM (≈ 17.1 µg/mL) | 0.94 µM (≈ 4.02 µg/mL) | 6.74 µM | Dose-Dependent Effect | 60% | 60% | 2.14 µM | 29.4 µM | Active | Active | – | – | Activity (Cell membrane [24]): Active; Activity (Cell membrane [25]): Active; Activity (Cell membrane [26]): Active; Activity (Cell membrane [27]): Active
5 | C[C@H]1C(=O)O[C@@H]2CCN3CC=C(COC(=O)[C@](C)(O)[C@]1(C)O)[C@H]23 [MONOCROTALINE] | – | – | – | – | – | – | – | – | – | – | – | – | – | – | – | 4 µM (≈ 1.3 µg/mL) | 16 µM (≈ 5.21 µg/mL) | MIC (Escherichia coli [28]): 0.78 µM (≈ 0.254 µg/mL); MIC (Pseudomonas aeruginosa [29]): 1.56 µM (≈ 0.508 µg/mL)

— ChEMBL document CHEMBL4828706, “Mechanistic Insights into the Leishmanicidal and Bactericidal Activities of Batroxicidin, a Cathelicidin-Related Peptide from a South American Viper (Bothrops atrox)” (J Nat Prod, 2021)
